Active and inactive are the calls of the source. The rule behind the calls is not given here.

The target of the test is Sodium-dependent dopamine transporter (Homo sapiens, UniProt Q01959). Briefly: Inhibition of dopamine uptake at human dopamine transporter.
Take `CNCC1(O)Cc2ccccc2C1Sc1ccccc1C` (racemic): the outcome was inactive.
With `CNC[C@]1(O)Cc2ccccc2[C@@H]1Oc1cccc(F)c1C` the entry was “inactive”.
With `CNC[C@@H]1Cc2ccccc2[C@@H]1Oc1ccccc1C` the entry was “inactive”; with `CNC[C@]1(O)Cc2ccccc2[C@@H]1Oc1ccc(O)cc1C`, “inactive”.
For the compound `Cc1ccccc1OC1c2ccccc2CC1(O)CNCCO` (racemic), the result was inactive.
Regarding `CNCC1(O)Cc2ccccc2C1Oc1ccccc1C` (racemic), the outcome was inactive.
For `CNC[C@@]1(O)Cc2ccccc2[C@H]1Oc1ccccc1C`, the result was inactive.
As for `CNC[C@]1(OC)Cc2ccccc2[C@@H]1Oc1ccccc1C`, the result was inactive.
With `CNC[C@]1(O)Cc2ccccc2[C@@H]1Oc1ccccc1SC`, the outcome was inactive.
With `CNC[C@]1(O)Cc2ccccc2[C@@H]1Oc1ccccc1F` the entry was “inactive”.
With `CNC[C@]1(O)Cc2ccccc2[C@@H]1Oc1cccc(O)c1C` the entry was “inactive”.
Consider `CNC[C@]1(O)Cc2ccccc2[C@@H]1Oc1cc(F)ccc1C`, for which the result was inactive.
For the compound `CNC[C@]1(O)Cc2ccccc2[C@@H]1Oc1cccc(C)c1C`, the outcome was inactive.
The result for `CCc1ccccc1O[C@H]1c2ccccc2C[C@@]1(O)CNC` reads “inactive”; that for `CNCC1(O)Cc2ccccc2C1Cc1ccccc1C` (racemic), “inactive”.
Consider `CNC[C@]1(O)Cc2ccccc2[C@@H]1Oc1ccc(C)cc1C`, for which the outcome was inactive.
The result for `CNC[C@]1(O)Cc2ccccc2[C@@H]1Oc1ccccc1-c1cccc2ccccc12` reads “inactive”; that for `CNC[C@]1(O)Cc2ccccc2[C@@H]1Oc1c(C)cccc1F`, “inactive”; that for `CNC[C@]1(O)Cc2ccccc2[C@@H]1Oc1ccccc1Cl`, “inactive”.
Consider `CNC[C@]1(O)Cc2ccccc2[C@@H]1Oc1ccc(F)cc1C`, for which the outcome was inactive.
As for `CCNCC1(O)Cc2ccccc2C1Oc1ccccc1C` (racemic), the result was inactive.
With `Cc1ccccc1O[C@H]1c2ccccc2C[C@@]1(O)CN`, the result was inactive.
Consider `CNC[C@]1(O)Cc2ccccc2[C@@H]1Oc1ccccc1OC`, for which the result was inactive.
With `CNC[C@]1(O)Cc2ccccc2[C@@H]1Oc1ccccc1CO` the entry was “inactive”.
For the compound `CNC[C@]1(O)Cc2ccccc2[C@@H]1Oc1ccccc1C`, the outcome was inactive.
Turning to `Cc1ccccc1OC1c2ccccc2CC1(O)CN` (racemic), the result was inactive.
